Assay results taken from ChEMBL document CHEMBL1201862, “PubChem BioAssay data set” (2004).
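Five compound concentrations were applied to cells in 96-well plates for 48 hours; endpoints were derived by simple linear interpolation of the resulting dose-response curve. GI50 = concentration required for 50% inhibition of growth.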 Active and inactive are the calls of the source. No stated cut-off is given here; in the data, active = GI50 up to about 1.1 µM and inactive = higher.

Legend:
Assay in all cases: NCI anticancer screen, dose series, 48 h
786-0 = test system: 786-0
A498 = test system: A498
A549 = test system: A549
CAKI-1 = test system: CAKI-1
COLO 205 = test system: COLO 205
DLD-1 = test system: DLD-1
EKVX = test system: EKVX
HCT-116 = test system: HCT-116
IGROV-1 = test system: IGROV-1
K562 = test system: K562
KM-20L2 = test system: KM-20L2
NCI-H460 = test system: NCI-H460
OVCAR-4 = test system: OVCAR-4
SN12C = test system: SN12C
SW-620 = test system: SW-620
U-251 = test system: U-251
UACC-62 = test system: UACC-62
SR = test system: SR
BT-549 = test system: BT-549
MDA-MB-435 = test system: MDA-MB-435

Compound	GI50 (786-0)	GI50 (A498)	GI50 (A549)	GI50 (CAKI-1)	GI50 (COLO 205)	GI50 (DLD-1)	GI50 (EKVX)	GI50 (HCT-116)	GI50 (IGROV-1)	GI50 (K562)	GI50 (KM-20L2)	GI50 (NCI-H460)	GI50 (OVCAR-4)	GI50 (SN12C)	GI50 (SW-620)	GI50 (U-251)	GI50 (UACC-62)	GI50 (SR)	GI50 (BT-549)	GI50 (MDA-MB-435)
Cc1cc(N(CCC#N)S(=O)(=O)c2ccccc2)ccc1/C=C1\N=C(c2ccc(Cl)cc2)OC1=O	> 100 µM (inactive)	> 100 µM (inactive)	> 100 µM (inactive)	> 100 µM (inactive)	> 100 µM (inactive)	> 100 µM (inactive)	> 100 µM (inactive)	> 100 µM (inactive)	> 100 µM (inactive)	> 100 µM (inactive)	> 100 µM (inactive)	> 100 µM (inactive)	> 100 µM (inactive)	> 100 µM (inactive)	> 100 µM (inactive)	54 µM (inactive)	> 100 µM (inactive)	–	–	–
O=C1[C@@H]2C(c3ccncc3)=NO[C@@H]2C(=O)N1c1ccc(Cc2ccc(N3C(=O)[C@H]4C(c5ccncc5)=NO[C@H]4C3=O)cc2)cc1	> 100 µM (inactive)	> 100 µM (inactive)	> 100 µM (inactive)	> 100 µM (inactive)	> 100 µM (inactive)	> 100 µM (inactive)	> 100 µM (inactive)	–	> 100 µM (inactive)	> 100 µM (inactive)	> 100 µM (inactive)	> 100 µM (inactive)	> 100 µM (inactive)	> 100 µM (inactive)	> 100 µM (inactive)	> 100 µM (inactive)	> 100 µM (inactive)	–	–	–
COc1cc2c(c(OC)c1)C1(CC(CC#N)C2)SCCS1 (stereo not drawn)	> 100 µM (inactive)	> 100 µM (inactive)	> 100 µM (inactive)	> 100 µM (inactive)	> 100 µM (inactive)	> 100 µM (inactive)	–	> 100 µM (inactive)	> 100 µM (inactive)	> 100 µM (inactive)	> 100 µM (inactive)	> 100 µM (inactive)	> 100 µM (inactive)	> 100 µM (inactive)	> 100 µM (inactive)	> 100 µM (inactive)	> 100 µM (inactive)	–	–	–
OC(CCl)CN1CC[N+]2(CC1)CC[N+]1(CCN(CC(O)CCl)CC1)CC2 (stereo not drawn) [PROSPIDIUM CHLORIDE]	> 50 µM (inactive)	> 50 µM (inactive)	> 50 µM (inactive)	> 50 µM (inactive)	> 50 µM (inactive)	–	> 50 µM (inactive)	> 50 µM (inactive)	> 50 µM (inactive)	> 50 µM (inactive)	> 50 µM (inactive)	> 50 µM (inactive)	> 50 µM (inactive)	> 50 µM (inactive)	> 50 µM (inactive)	> 50 µM (inactive)	–	> 50 µM (inactive)	–	–
O=C1OC(c2ccccc2)=N/C1=C\c1ccc2ccccc2c1	> 100 µM (inactive)	> 100 µM (inactive)	> 100 µM (inactive)	> 100 µM (inactive)	> 100 µM (inactive)	> 100 µM (inactive)	> 100 µM (inactive)	> 100 µM (inactive)	> 100 µM (inactive)	> 100 µM (inactive)	> 100 µM (inactive)	> 100 µM (inactive)	> 100 µM (inactive)	> 100 µM (inactive)	> 100 µM (inactive)	> 100 µM (inactive)	> 100 µM (inactive)	–	–	–
COc1ccc(/C=N/Nc2nc(=S)[nH]c3[nH]ncc23)cc1	43.4 µM (inactive)	40.9 µM (inactive)	54.3 µM (inactive)	32.7 µM (inactive)	18.3 µM (inactive)	–	59.4 µM (inactive)	> 100 µM (inactive)	25 µM (inactive)	> 100 µM (inactive)	–	79.8 µM (inactive)	49 µM (inactive)	> 100 µM (inactive)	> 100 µM (inactive)	19.1 µM (inactive)	31 µM (inactive)	> 100 µM (inactive)	> 100 µM (inactive)	30.6 µM (inactive)
O=C1/C(=C\c2ccc(-c3ccc(Cl)cc3Cl)o2)SC2NC(COc3ccc(Cl)cc3)=NN12 (stereo not drawn)	51.2 µM (inactive)	2.19 µM (inactive)	69.7 µM (inactive)	51.1 µM (inactive)	41.5 µM (inactive)	–	32.4 µM (inactive)	48.4 µM (inactive)	29.9 µM (inactive)	48.9 µM (inactive)	–	38.5 µM (inactive)	45.3 µM (inactive)	72.1 µM (inactive)	60.7 µM (inactive)	21.4 µM (inactive)	34 µM (inactive)	33.3 µM (inactive)	47 µM (inactive)	38.7 µM (inactive)
CC(=O)Nc1nc(NC(C)=O)c2nc(CO)[nH]c2n1	> 100 µM (inactive)	> 100 µM (inactive)	> 100 µM (inactive)	> 100 µM (inactive)	> 100 µM (inactive)	–	> 100 µM (inactive)	> 100 µM (inactive)	> 100 µM (inactive)	> 100 µM (inactive)	–	> 100 µM (inactive)	> 100 µM (inactive)	> 100 µM (inactive)	> 100 µM (inactive)	> 100 µM (inactive)	> 100 µM (inactive)	> 100 µM (inactive)	> 100 µM (inactive)	> 100 µM (inactive)
CC(O)C(N/C=C1/N=C(c2ccccc2)OC1=O)C(=O)O (stereo not drawn)	> 100 µM (inactive)	> 100 µM (inactive)	> 100 µM (inactive)	> 100 µM (inactive)	> 100 µM (inactive)	> 100 µM (inactive)	> 100 µM (inactive)	> 100 µM (inactive)	> 100 µM (inactive)	> 100 µM (inactive)	> 100 µM (inactive)	> 100 µM (inactive)	> 100 µM (inactive)	–	> 100 µM (inactive)	> 100 µM (inactive)	> 100 µM (inactive)	–	–	–
CCOc1ccc(Nc2nc(N)nc(N)c2N=O)cc1	> 100 µM (inactive)	> 100 µM (inactive)	> 100 µM (inactive)	10.9 µM (inactive)	> 100 µM (inactive)	–	48.4 µM (inactive)	> 100 µM (inactive)	7.69 µM (inactive)	53.5 µM (inactive)	–	32.9 µM (inactive)	69.3 µM (inactive)	56.6 µM (inactive)	91.2 µM (inactive)	> 100 µM (inactive)	44.1 µM (inactive)	71.1 µM (inactive)	45.6 µM (inactive)	52.4 µM (inactive)
CC(=O)OC1CCn2nnc(CO[Si](C)(C)C(C)(C)C)c21 (stereo not drawn)	> 100 µM (inactive)	–	> 100 µM (inactive)	> 100 µM (inactive)	> 100 µM (inactive)	> 100 µM (inactive)	> 100 µM (inactive)	> 100 µM (inactive)	> 100 µM (inactive)	> 100 µM (inactive)	> 100 µM (inactive)	> 100 µM (inactive)	> 100 µM (inactive)	> 100 µM (inactive)	> 100 µM (inactive)	> 100 µM (inactive)	–	> 100 µM (inactive)	–	–
CN(C)CCn1c(=O)c2ccc(NCCN3CCNCC3)c3c(=O)c4ccccc4n(c1=O)c23	0.358 µM (active)	4.15 µM (inactive)	0.962 µM (active)	2.04 µM (inactive)	1.35 µM (inactive)	–	1.87 µM (inactive)	0.692 µM (active)	0.345 µM (active)	0.231 µM (active)	–	0.586 µM (active)	5.69 µM (inactive)	1.47 µM (inactive)	0.378 µM (active)	1.11 µM (active)	3.47 µM (inactive)	0.0776 µM (active)	7.33 µM (inactive)	2.86 µM (inactive)
Clc1nc(Nc2nc3ccccc3[nH]2)nc(Cl)c1-c1ccccc1	16.1 µM (inactive)	21.5 µM (inactive)	34.7 µM (inactive)	31.1 µM (inactive)	19.1 µM (inactive)	–	23.6 µM (inactive)	21.1 µM (inactive)	19 µM (inactive)	25.2 µM (inactive)	–	12.2 µM (inactive)	14.8 µM (inactive)	12.6 µM (inactive)	11.2 µM (inactive)	15.9 µM (inactive)	18.1 µM (inactive)	29.1 µM (inactive)	16.5 µM (inactive)	29.3 µM (inactive)
COC1=C(Cl)C(=O)c2c(O)ccc(O)c2C1=O	0.287 µM (active)	0.794 µM (active)	4.01 µM (inactive)	0.541 µM (active)	0.212 µM (active)	–	0.902 µM (active)	0.536 µM (active)	1.7 µM (inactive)	0.826 µM (active)	–	4.44 µM (inactive)	2.07 µM (inactive)	1.31 µM (inactive)	0.1 µM (active)	3.53 µM (inactive)	1.07 µM (active)	0.227 µM (active)	1.82 µM (inactive)	1.28 µM (inactive)
Cc1c2c(Cl)c3c(c(Cl)c2c(C)c2c(Cl)c4c(c(Cl)c12)C(c1ccccc1)(c1ccccc1)C4(c1ccccc1)c1ccccc1)C(c1ccccc1)(c1ccccc1)C3(c1ccccc1)c1ccccc1	> 100 µM (inactive)	> 100 µM (inactive)	> 100 µM (inactive)	> 100 µM (inactive)	> 100 µM (inactive)	–	> 100 µM (inactive)	> 100 µM (inactive)	> 100 µM (inactive)	> 100 µM (inactive)	–	> 100 µM (inactive)	> 100 µM (inactive)	> 100 µM (inactive)	> 100 µM (inactive)	> 100 µM (inactive)	> 100 µM (inactive)	> 100 µM (inactive)	> 100 µM (inactive)	> 100 µM (inactive)
N=C(N)NNC(=O)CCn1[nH]c(=O)c(Cl)c(Cl)c1=O	> 100 µM (inactive)	–	> 100 µM (inactive)	> 100 µM (inactive)	> 100 µM (inactive)	> 100 µM (inactive)	> 100 µM (inactive)	–	> 100 µM (inactive)	> 100 µM (inactive)	> 100 µM (inactive)	> 100 µM (inactive)	> 100 µM (inactive)	> 100 µM (inactive)	> 100 µM (inactive)	> 100 µM (inactive)	> 100 µM (inactive)	–	–	–
